We go through six compounds from publication PMC7697191, “Identification of Novel Influenza Polymerase PB2 Inhibitors Using a Cascade Docking Virtual Screening Approach” (Molecules, 2020).

A word on the EC50: it is the concentration giving half of the maximal effect.

For experiment [1], the system named is PR/8-I38T mutant (H1N1, recombinant baloxavir-resistant). The format is cell-based, influenza A virus (H1N1).
The subject of experiment [2] is PR/8-R292K mutant (H1N1, recombinant oseltamivir-resistant). Format: cell-based, influenza A virus (H1N1).

Molecules are shown by their SMILES. A value given as a limit tells only on which side of the number the result lay.

`C=CCn1cc(CNCc2noc(-c3ccc4c(c3)OCO4)n2)c(C)n1` [11D4]: the half-maximal effective concentration (EC50) in experiment [1] turned out to be 32.4 ± 1.52 µM; in experiment [2] it was 21.5 ± 5.49 µM.

Consider `C=CCn1cc(-c2cc(-c3ccc(C(=O)O)cc3)[nH]c(=N)c2C#N)cn1` [12C5], for which the EC50 in experiment [1] was found to be 35.4 ± 1.02 µM; in experiment [2], 28.6 ± 0.99 µM.

With `CCSc1ncc(-c2cc(-c3c(C)nn(C)c3C)nc(N)c2C#N)cn1` [21A5], the EC50 in experiment [1] was found to be 14.1 ± 0.47 µM; in experiment [2], 9.27 ± 0.55 µM.

For `Cc1cccnc1CCNc1nc2nonc2nc1NCc1cccs1` [21B1], the EC50 in experiment [1] turned out to be 37 ± 0.67 µM; in experiment [2], 14.6 ± 1.44 µM.

Turning to `CCC(CC)O[C@@H]1C=C(C(=O)O)C[C@H](N)[C@H]1NC(C)=O` [OC, Oseltamivir carboxylate, reference compound], the EC50 in experiment [2] was more than 100 µM.

Turning to `O=C(O)[C@H]1C2CCC(CC2)[C@@H]1Nc1nc(-c2c[nH]c3ncc(F)cc23)ncc1F` [VX-787, reference compound], the EC50 stood at 2.34 ± 0.1 µM in experiment [1] and 4.14 ± 0.66 µM in experiment [2].
